From patent US20190091189A1, “ADMINISTRATION OF EXOGENOUS KETONE TO LOWER BLOOD GLUCOSE” (priority 2016, published 2019)

Columns and labels:
[1] = Sub-chronic oral gavage (7 days), blood βHB and glucose, without exercise; format: in vivo; conditions: WAG/Rij rats; for blood βHB: about 2.5 g/kg b.w./day, after 7 days of gavage, compared to baseline, 24 h and control
Source text: (§1) In order to familiarize the animals to the intragastric gavage method, water was gavaged for 5 days before ketone supplementation. Following the adaptation period to the intragastric gavage method, 39 male SPD rats were fed with standard diet, and gavaged daily with 5 g/kg b.w./day water (SD/control; n=11) or ketone supplements KE (n=9), KS (n=9), KSMCT (n=10) sub-chronically for 7 days. In addition, following the adaptation period to the intragastric gavage method, WAG/Rij male rats (n=32) were fed with SD and gavaged sub-chronically with about 2.5 g/kg b.w./day water (SD/control; n=8), KE (n=8), KS (n=8) or KSMCT (n=8) for 7 days.
(§2) In the chronic feeding study, blood βHB and glucose levels were measured 24 h before the 1st day of ketone treatments (baseline levels) and at 13th week. In the 7 day oral gavage studies, blood βHB and glucose levels were measured 24 h before the 1st day of ketone treatments (baseline levels; SPD and WAG/Rij rats), 24 h after the first gavage and 60 min after gavage on the 7th day (SPD and WAG/Rij rats). Whole blood samples (10 μL) were taken from the saphenous vein for analysis of blood glucose (mg/dl) and βHB (mmol/1) levels with the commercially available glucose and ketone (βHB) monitoring system Precision Xtra™ (Abbott Laboratories, Abbott Park, Ill., USA).

[2] = Multiple treatment (7 days) and rotarod exercise, blood βHB and glucose; format: in vivo, Sprague-Dawley rats; conditions: exercised SPD rats
Source text: Four month old Sprague-Dawley rats were first acclimated to oral gavage with administration of tap water once daily for a period of 5 days. The rats were then divided into 5 groups, and fed either a standard diet (SD), a ketogenic diet (KD), or a standard diet supplemented with a once daily oral gavage of a ketogenic compound as outlined in Table 1. The ketogenic compound was selected from 1,3-butanediol-acetoacetate diester (SD+KE), β-hydroxybutyrate mineral salt (SD+KS), or β-hydroxybutyrate mineral salt and a medium chain triglyceride (SD+KSMCT). The above ketogenic compounds were provided at a dose of 5 g/kg of body weight.
Each group of animals was maintained on the respective dietary conditions for 7 days. Whole blood samples (10 μL) were collected from the saphenous vein of rats. The levels of blood glucose (mg/dL) and β-hydroxybutyrate (mmol/L) were measured with the commercially available glucose monitoring system PRECISION XTRA® (Abbott Laboratories, Abbott Park, Ill., USA). It is noted that the PRECISION XTRA® only measures β-hydroxybutyrate levels, therefore total blood ketone levels may be higher than measured.
Rats were exercised on a Rota Rod Rotamex 5 (Columbus Instruments). Animals were exercised on the rotarod for 5 consecutive days before treatment began in order to acclimate to the equipment and the task. The rats were placed on rods of the accelerating rotarod and the time the animals remained on the rotarod was measured. The rotarod was set to accelerate to 40 rpm in 180 seconds. Each training and testing consisted of 3 trials, with a 2 minute rest period between each trial. Animals were placed on the rotarod and timed until they fell from the rotating rod. The animals were evaluated on the rotarod exercise test after the 5 days training period but prior to the beginning of dietary treatment (baseline), 24 hours after treatment, and after 7 days of dietary treatment.
The animals were evaluated for blood levels of glucose and ketone bodies β-hydroxybutyrate), prior to the beginning of dietary treatment, 24 hours after treatment, and after 7 days of dietary treatment.

[3] = Sub-chronic oral gavage (7 days), blood βHB and glucose, without exercise; format: in vivo, Sprague-Dawley rats; conditions: SPD rats, 5 g/kg b.w./day gavage
Source text: as §1, §2

[4] = Chronic feeding (83 days) of ketone supplements, blood βHB and glucose; format: in vivo, Sprague-Dawley rats; conditions: SPD rats, after 83 days of chronic feeding (~25 g/kg b.w./day), compared to control
Source text: A total of 48 male SPD rats were fed for 83 days with either standard rodent chow (2018 Teklad Global 18% Protein Rodent Diet (#2018), Harlan) standard diet (SD)/control; n=9) or SD+ketone supplementation. Four treatment animal groups included low-dose KE (˜10 g/kg b.w./day, Low-dose ketone ester (LKE); n=10), high-dose KE (˜25 g/kg b.w./day, high dose ketone ester (HKE); n=10), KS (˜25 g/kg b.w./day, KS; n=9) and KSMCT (˜25 g/kg b.w./day, KSMCT; n=10).
as §2

[5] = 10-week feeding of G1D mice, blood ketone and glucose; format: in vivo; conditions: fed for 10 weeks, 10% KE or 20% KS in standard diet, or ketogenic diet
Protocol: GLUT1 deficiency syndrome (G1D) is characterized by impaired glucose transport in the brain and diagnosed with CSF glucose value of <2.2 mmol/L. There is no cure for G1D, but the ketogenic diet (KD) is often effective for the drug-resistant seizures and impairment of motor function associated with the disease. The effect of ketogenic compounds on blood glucose levels was assessed in glucose transporter type 1 (G1D)-deficient mice. A group of 48 G1D mice, aged 2-5 months old, were fed for 10 weeks with either a standard rodent diet (SD), a ketogenic diet (KD), a standard diet supplemented with 10% ketone ester (SD+KE) or a standard diet supplemented with 20% ketone mineral salt (SD+KS).

[6] = 5 g/kg once daily gavage (or ketogenic diet), 24 hours after treatment
[7] = 5 g/kg once daily gavage (or ketogenic diet), after 24 hours, compared to baseline
[8] = 5 g/kg once daily gavage (or ketogenic diet), after 7 days
[9] = 5 g/kg once daily gavage, after 7 days

Compound	glucose levels ([1]; about 2.5 g/kg b.w./day gavage, after 24 h, compared to baseline and control group)	blood βHB [1]	blood βHB after exercise [2, 6]	blood glucose levels after exercise [2, 7]	blood βHB after exercise [2, 8]	blood glucose levels after exercise [2, 9]	blood βHB levels ([3]; 24 h after a single gavage, compared to control)	blood glucose levels ([3]; at 24 h, compared to control)	blood βHB levels [4]	blood glucose level [5]	blood ketone level [5]	blood βHB ([3]; 7 days, compared to control group)
CC(=O)CC(=O)OCCC(C)OC(=O)CC(C)=O (centres unmarked) [KE, 1,3-butanediol-acetoacetate diester]	lower	elevated	elevated levels	reduce blood glucose levels	trend towards baseline levels	trended towards baseline	elevated	lower	significantly elevated	quickly dropped and remained the lowest	slow and slight elevation	
Na^+/K^+-β-hydroxybutyrate mineral salt [KS]		elevated	no change	increase	significant increase	decline towards baseline			significantly elevated	early decrease	significant and rapid elevation	elevated
